Experiment [1] has as its target Cyclin-dependent kinase 4/cyclin D (Homo sapiens, UniProt P11802). Nature of the experiment: Inhibition of Cyclin-dependent kinase 4-cyclin D. It is filed as protein-complex assay.
For experiment [2], the target named is Cyclin-dependent kinase 2/cyclin E (Homo sapiens, UniProt P24941). Nature of the experiment: Inhibition of Cyclin-dependent kinase 2-cyclin E. It is filed as protein-complex assay.
For another experiment, the system named is HCT-116. Nature of the experiment: Inhibition of HCT116 human colon carcinoma cell proliferation. Format: functional, cell-based.
For experiment [3], the target named is Fibroblast growth factor receptor (Homo sapiens, UniProt P22607+P11362+P22455+P21802). Nature of the experiment: Inhibition of Fibroblast growth factor receptor (FGFr). Format: protein assay.
Experiment [4] addresses Cyclin-dependent kinase 2/cyclin A (Homo sapiens, UniProt P24941). Nature of the experiment: Inhibition of Cyclin-dependent kinase 2-cyclin A. It is filed as protein-complex assay.
Experiment [5] addresses Cyclin-dependent kinase 1/cyclin B (Homo sapiens, UniProt P06493). Nature of the experiment: Inhibition of Cyclin-dependent kinase 1-cyclin B. It is filed as protein-complex assay.
The target of experiment [6] is Proto-oncogene tyrosine-protein kinase Src (Homo sapiens, UniProt P12931). Nature of the experiment: Inhibition of c-Src tyrosine kinase.
Sequence of Proto-oncogene tyrosine-protein kinase Src (P12931 2-536 limits assumed): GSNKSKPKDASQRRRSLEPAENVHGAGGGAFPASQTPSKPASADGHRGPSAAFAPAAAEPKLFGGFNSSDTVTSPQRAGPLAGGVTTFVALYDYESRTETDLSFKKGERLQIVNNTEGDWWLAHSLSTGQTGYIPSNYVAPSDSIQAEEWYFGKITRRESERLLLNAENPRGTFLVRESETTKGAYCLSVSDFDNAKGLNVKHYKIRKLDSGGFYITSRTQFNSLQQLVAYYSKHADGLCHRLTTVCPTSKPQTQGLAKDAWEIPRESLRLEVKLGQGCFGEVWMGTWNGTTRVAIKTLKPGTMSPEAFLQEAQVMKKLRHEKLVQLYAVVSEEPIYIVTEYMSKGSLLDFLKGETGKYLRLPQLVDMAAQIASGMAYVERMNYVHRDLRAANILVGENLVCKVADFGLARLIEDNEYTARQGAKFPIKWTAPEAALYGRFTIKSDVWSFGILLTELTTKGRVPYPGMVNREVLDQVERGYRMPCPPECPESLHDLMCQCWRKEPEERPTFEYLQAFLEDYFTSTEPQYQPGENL

pIC50: −log10 of the molar value.

Take `CCn1c(=O)ccc2cnc(Nc3ccc(O)c(OC)c3)nc21`: in experiment [1], the pIC50 – broadly, the negative decadic logarithm of the IC50, by convention in mol/L – was 5.74.
As for `O=c1ccc2cnc(Nc3ccc(N4CCC(CCCO)CC4)cc3)nc2n1C1CC2CCC1C2` (stereo not drawn), the pIC50 was 6.78 in experiment [2]; 6.67 in the experiment with HCT-116; 6.68 in experiment [4]; < 4.40 in experiment [5]; 8.10 in experiment [1]. In addition, the IC50 (commonly the concentration that gives 50% inhibition) in experiment [3] is 8620 nM.
In experiment [1], `CCOCCn1c(=O)ccc2cnc(Nc3ccccc3)nc21` had a negative-log IC50 (pIC50) of 5.11.
`CCN(CC)c1ccc(Nc2ncc3ccc(=O)n(CC)c3n2)cc1` showed a pIC50 in experiment [1] of 5.85.
On the same count and under the same terms, the value for `CCn1c(=O)ccc2cnc(Nc3ccc(-n4cccc4)cc3)nc21` was 5.56.
The compound `CCCn1c(=O)ccc2cnc(Nc3ccccc3)nc21` showed a half-maximal inhibitory concentration (IC50) in experiment [3] of 6600 nM.
Turning to `CCn1c(=O)ccc2cnc(Nc3ccc(OC)c(OC)c3)nc21`, the negative logarithm of the IC50 (pIC50) in experiment [1] is 5.39.
As to `CN1CCN(c2ccc(Nc3ncc4ccc(=O)n(C5CCCCC5)c4n3)cc2)CC1`, the pIC50 is 7.70 in experiment [2] and 8.40 in experiment [1]. The same compound returned a 50% inhibitory concentration (IC50) in experiment [3] of 51 nM.
Regarding `COCCn1c(=O)ccc2cnc(Nc3ccccc3)nc21`, the pIC50 in experiment [1] was 5.54.
Same read-out and setting: the value for `CCN(CC)CCOc1ccc(Nc2ncc3ccc(=O)n(C4CCCCCC4)c3n2)cc1` was 8.40.
`COCn1c(=O)ccc2cnc(Nc3ccccc3)nc21`: in experiment [1], the pIC50 is 5.38.
Regarding `CCn1c(=O)ccc2cnc(N(C)c3ccccc3)nc21`, in experiment [1], the negative logarithm of the IC50 (pIC50) was < 4.40.
Still for that read-out and setting: the result for `CCn1c(=O)ccc2cnc(Nc3ccc(O)cc3)nc21` reads 6.23; that for `CCn1c(=O)ccc2cnc(NC(C)C)nc21`, 5.36.
Same read-out and setting: the value for `CCN(CC)CCOc1ccc(Nc2ncc3ccc(=O)n(C4CCCC4)c3n2)cc1` was 9.15.
Consider `CCn1c(=O)ccc2cnc(Nc3ccccc3)nc21`, for which the negative logarithm of the IC50 (pIC50) in experiment [6] was 4.68; in experiment [1], 6.21. This compound also had a 50% inhibitory concentration (IC50) in experiment [3] of 3295 nM.
With `CC(C)n1c(=O)ccc2cnc(Nc3ccc(N4CCN(C)CC4)cc3)nc21`, in experiment [3], the half-inhibitory concentration (IC50) worked out at 70 nM.
The compound `COC(=O)Cn1c(=O)ccc2cnc(Nc3ccccc3)nc21` gave a pIC50 in experiment [1] of 4.51.
Same read-out and setting: the value for `CN1CCN(c2ccc(Nc3ncc4ccc(=O)n(-c5ccccc5)c4n3)cc2)CC1` was 6.76; that for `CN1CCN(c2ccc(Nc3ncc4ccc(=O)n(CC(O)CO)c4n3)cc2)CC1` (stereo not drawn) was 5.78.
`CN1CCN(c2ccc(Nc3ncc4ccc(=O)n(C5CC5)c4n3)cc2)CC1`: in experiment [1], the pIC50 is 6.85.
Turning to `CN1CCN(c2ccc(Nc3ncc4ccc(=O)n(CCOCc5ccccc5)c4n3)cc2)CC1`, in experiment [1], the pIC50 is 5.68.
In experiment [3], `CCn1c(=O)ccc2cnc(Nc3cccc(OC(F)(F)C(F)F)c3)nc21` gave a 50% inhibitory concentration (IC50) of 44200 nM.
In experiment [1], `CCn1c(=O)ccc2cnc(Nc3ccc(N4CCC(CCCO)CC4)cc3)nc21` showed a pIC50 of 6.05.
Same read-out and setting: the value for `CN1CCN(c2ccc(Nc3ncc4ccc(=O)n(C5CC6CCC5C6)c4n3)cc2)CC1` (stereo not drawn) was 8.22; that for `CCn1c(=O)ccc2cnc(Nc3ccc(N4CCCCC4)cc3)nc21` was 6.52.
The same measure, in the same setting: the result for `CCn1c(=O)ccc2cnc(Nc3ccc(OCCN(C)C)cc3)nc21` reads 6.48; that for `CCn1c(=O)ccc2cnc(Nc3ccc(OCCOC)cc3)nc21`, 5.63; that for `CCn1c(=O)ccc2cnc(Nc3cccc(OC)c3)nc21`, < 4.40.
Still for that read-out and setting: the value for `O=c1ccc2cnc(Nc3ccccc3)nc2n1CC1CCCCC1` was 4.87; that for `CCC(C)n1c(=O)ccc2cnc(Nc3ccccc3)nc21` (stereo not drawn) was 6.72.
In experiment [1], `CC(C)n1c(=O)ccc2cnc(Nc3ccccc3)nc21` had a pIC50 of 6.84.
On the same count and under the same terms, the value for `O=c1ccc2cnc(Nc3ccc(N4CCC(CCCO)CC4)cc3)nc2n1C1CCCC1` was 7.47; that for `CC(C)Cn1c(=O)ccc2cnc(Nc3ccccc3)nc21` was 6.53.
In experiment [1], `CCN(CC)CCOc1ccc(Nc2ncc3ccc(=O)n(C4CC5CCC4C5)c3n2)cc1` (stereo not drawn) had a pIC50 of 6.35.
For the compound `CCCCn1c(=O)ccc2cnc(Nc3ccccc3)nc21`, in experiment [3], the concentration for half-maximal inhibition (IC50) was 5290 nM. The pIC50 in experiment [5] was 5.70.
Take `CCn1c(=O)ccc2cnc(Nc3ccncc3)nc21`: the pIC50 in experiment [1] was 5.93.
`CN1CCN(c2ccc(Nc3ncc4ccc(=O)n(C5CCCC5)c4n3)cc2)CC1` showed a negative logarithm of the IC50 (pIC50) in experiment [1] of 8.05.
Still for that read-out and setting: the value for `CCN(CC)CCOc1ccc(Nc2ncc3ccc(=O)n(C4CCCCC4)c3n2)cc1` was 7.96; that for `O=c1ccc2cnc(Nc3ccccc3)nc2n1-c1ccccc1` was 5.78; that for `CC(C)CCn1c(=O)ccc2cnc(Nc3ccccc3)nc21` was 6.80.
In the case of `CCn1c(=O)ccc2cnc(NCc3ccccc3)nc21`, the negative logarithm of the IC50 (pIC50) in experiment [1] is < 4.40.
Same read-out and setting: the result for `CC(C)CCn1c(=O)ccc2cnc(Nc3ccc(N4CCN(C)CC4)cc3)nc21` reads 7.89.

These data come from ChEMBL document CHEMBL1133535, “Pyrido[2,3-d]pyrimidin-7-one inhibitors of cyclin-dependent kinases” (J Med Chem, 2000).
